Assay results from patent US20190375708A1 (VenatoRx Pharmaceuticals, Inc., priority 2018, published 2019).

Tests used:
[1] = In vitro cytotoxicity assay (MTT cell viability) in HepG2 cells; type: cell-based, human; settings: human
Outline: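 Read-out: MTT formazan absorbance at 492 nm, expressed as % of vehicle signal; CC50 by 4-parameter non-linear regression. Parental HepG2, 20,000 cells/well, treated 7 days with compound from 30 μM down to 1.0 nM.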

[2] = test system: HBV replication in HepAD38 cells; assay: Anti-HBV replication assay in HepAD38 cells (QPCR of extracellular HBV DNA); type: cell-based, HBV (genotype D, serotype ayw); settings: Hepatitis B virus, 168 h, 7 days incubation, extracellular HBV DNA by QPCR, read-out: Anti-HBV EC50
Outline: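 Read-out is QPCR of HBV DNA released into culture supernatant, converted to percent of vehicle control and fitted to give EC50. Cells were HepAD38 induced by tetracycline removal and dosed […] for 7 days.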

Cc1cc(NC(=O)c2c(C)c(C(=O)C(=O)NC3CC(=O)Nc4ccccc43)n(C)c2C)ccc1F (stereo not shown) [Example 626, N-(4-fluoro-3-methylphenyl)-1,2,4-trimethyl-5-(2-oxo-2-((2-oxo-1,2,3,4-tetrahdyroquinolin-4-yl)amino)acetyl)-1H-pyrrole-3-carboxamide]
CC50 at 7 days [1]: > 30000 nM | EC50 [2]: < 50 nM

CC[C@H](C)NC(=O)C(=O)c1c(C)c(C(=O)Nc2cnc(F)c(C)c2)c2n1CCCC2 [Example 475, (S)-3-(2-(sec-butylamino)-2-oxoacetyl)-N-(6-fluoro-5-methylpyridin-3-yl)-2-methyl-5,6,7,8-tetrahydroindolizine-1-carboxamide]
CC50 at 7 days [1]: > 30000 nM | EC50 [2]: 500 to 1000 nM

Cc1cc(NC(=O)c2c(C)c(C(=O)C(=O)NCCCN3CCOCC3)n(C)c2C)ccc1F [Example 301, N-(4-fluoro-3-methylphenyl)-1,2,4-trimethyl-5-(2-((3-morpholinopropyl)amino)-2-oxoacetyl)-1H-pyrrole-3-carboxamide]
CC50 at 7 days [1]: > 30000 nM | EC50 [2]: < 50 nM

COc1c(C(=O)Nc2ccc(F)c(F)c2)c(C)n(C)c1C(=O)C(=O)NCC(C)(C)O [Example 382, N-(3,4-difluorophenyl)-5-(2-((2-hydroxy-2-methylpropyl)amino)-2-oxoacetyl)-4-methoxy-1,2-dimethyl-1H-pyrrole-3-carboxamide]
CC50 at 7 days [1]: > 30000 nM | EC50 [2]: > 1000 nM

Cc1cc(NC(=O)c2c(C)c(C(=O)C(=O)N[C@H](C)[C@@H](C)O)n(C)c2C)ccc1F [Example 199, N-(4-fluoro-3-methylphenyl)-5-(2-(((2R,3R)-3-hydroxybutan-2-yl)amino)-2-oxoacetyl)-1,2,4-trimethyl-1H-pyrrole-3-carboxamide]
CC50 at 7 days [1]: > 30000 nM | EC50 [2]: < 50 nM

Cc1c(C(=O)Nc2cncc(Cl)c2)c(C)n(C)c1C(=O)C(=O)N[C@H](C)C(F)(F)F [Example 727, (R)-N-(5-chloropyridin-3-yl)-1,2,,4-trimethyl-5-(2-oxo-2-((1,1,1-trifluoropropan-2-yl)amino)acetyl)-1H-pyrrole-3-carboxamide]
CC50 at 7 days [1]: > 30000 nM | EC50 [2]: < 50 nM

Cc1c(C(=O)Nc2ccnc(F)c2)c(C)n(C)c1C(=O)C(=O)N[C@@H](C)C(F)(F)F [Example 274, (S)-N-(2-fluoropyridin-4-yl)-1,2,4-trimethyl-5-(2-oxo-2-((1,1,1-trifluoropropan-2-yl)amino)acetyl)-1H-pyrrole-3-carboxamide]
CC50 at 7 days [1]: > 30000 nM | EC50 [2]: < 50 nM

Cc1cc(NC(=O)c2c(C)c(C(=O)C(=O)N[C@@H](CO)[C@H](C)O)n(C)c2C)ccc1F [Example 103, 5-(2-(((2S,3S)-1,3-dihydroxybutan-2-yl)amino)-2-oxoacetyl)-N-(4-fluoro-3-methylphenyl)-1,2,4-trimethyl-1H-pyrrole-3-carboxamide]
CC50 at 7 days [1]: > 30000 nM | EC50 [2]: < 50 nM

Cc1cc(NC(=O)c2c(C)c(C(=O)C(=O)Nc3cccc(B(O)O)c3)n(C)c2C)ccc1F [Example 254, (3-(2-(4-((4-fluoro-3-methylphenyl)carbamoyl)-1,3,5-trimethyl-1H-pyrrol-2-yl)-2-oxoacetamido)phenyl)boronic acid]
CC50 at 7 days [1]: 5000 to 30000 nM | EC50 [2]: < 50 nM

Cc1cc(NC(=O)c2c(C)c(C(=O)C(=O)NCCN3CCNC(=O)C3)n(C)c2C)ccc1F [Example 300, N-(4-fluoro-3-methylphenyl)-1,2,4-trimethyl-5-(2-oxo-2-((2-(3-oxopiperazin-1-yl)ethyl)amino)acetyl)-1H-pyrrole-3-carboxamide]
CC50 at 7 days [1]: > 30000 nM | EC50 [2]: 50 to 499 nM

CC(=O)N[C@H]1C[C@@H](NC(=O)C(=O)c2c(C)c(C(=O)Nc3ccc(F)c(C)c3)c(C)n2C)C1 [Example 668, 5-(2-(((1s,3s)-3-acetamidocyclobutyl)amino)-2-oxoacetyl)-N-(4-fluoro-3-methylphenyl)-1,2,4-trimethyl-1H-pyrrole-3-carboxamide]
CC50 at 7 days [1]: > 30000 nM | EC50 [2]: < 50 nM

Cc1cc(NC(=O)c2c(C)c(C(=O)C(=O)Nc3ccn(C)n3)n(C)c2C)ccc1F [Example 306, N-(4-fluoro-3-methylphenyl)-1,2,4-trimethyl-5-(2-((1-methyl-1H-pyrazol-3-yl)amino)-2-oxoacetyl)-1H-pyrrole-3-carboxamide]
CC50 at 7 days [1]: > 30000 nM | EC50 [2]: < 50 nM

Cc1noc([C@H](C)NC(=O)C(=O)c2cc(C(=O)Nc3ccc(F)c(C)c3)c3n2CCCC3)n1 [Example 430, (S)-N-(4-fluoro-3-methylphenyl)-3-(2-((1-(3-methyl-1,2,4-oxadiazol-5-yl)ethyl)amino)-2-oxoacetyl)-5,6,7,8-tetrahydroindolizine-1-carboxamide]
CC50 at 7 days [1]: > 30000 nM | EC50 [2]: 50 to 499 nM

Cc1cc(NC(=O)c2c(C)c(C(=O)C(=O)Nc3ccc(F)c(F)c3)n(C)c2C)ccc1F [Example 231, 5-(2-((3,4-difluorophenyl)amino)-2-oxoacetyl)-N-(4-fluoro-3-methylphenyl)-1,2,4-trimethyl-1H-pyrrole-3-carboxamide]
CC50 at 7 days [1]: 5000 to 30000 nM | EC50 [2]: < 50 nM

CC[C@@H](CO)NC(=O)C(=O)c1c(OC)c(C(=O)Nc2ccc(F)c(F)c2)c(C)n1C [Example 385, (S)-N-(3,4-difluorophenyl)-5-(2-((1-hydroxybutan-2-yl)amino)-2-oxoacetyl)-4-methoxy-1,2-dimethyl-1H-pyrrole-3-carboxamide]
CC50 at 7 days [1]: > 30000 nM | EC50 [2]: > 1000 nM

Cc1cc(NC(=O)c2c(C)c(C(=O)C(=O)NC3CCc4nc(N)sc4C3)n(C)c2C)ccc1F (stereo not shown) [Example 20, 5-(2-((2-amino-4,5,6,7-tetrahydrobenzo[d]thiazol-6-yl)amino)-2-oxoacetyl)-N-(4-fluoro-3-methylphenyl)-1,2,4-trimethyl-1H-pyrrole-3-carboxamide]
CC50 at 7 days [1]: 500 to 4990 nM | EC50 [2]: < 50 nM

Cc1cc(NC(=O)c2c(C)c(C(=O)C(=O)NC3(CN4CCOCC4)CCCCC3)n(C)c2C)ccc1F [Example 596, N-(4-fluoro-3-methylphenyl)-1,2,4-trimethyl-5-(2-((1-(morpholinomethyl)cyclohexyl)amino)-2-oxoacetyl)-1H-pyrrole-3-carboxamide]
CC50 at 7 days [1]: > 30000 nM | EC50 [2]: < 50 nM

Cc1cc(NC(=O)c2c(C)c(C(=O)C(=O)N3CCc4nc(N)sc4C3)n(C)c2C)ccc1F [Example 49, 5-(2-(2-amino-6,7-dihydrothiazolo[5,4-c]pyridin-5(4H)-yl)-2-oxoacetyl)-N-(4-fluoro-3-methylphenyl)-1,2,4-trimethyl-1H-pyrrole-3-carboxamide]
CC50 at 7 days [1]: > 30000 nM | EC50 [2]: 50 to 499 nM

Cc1cc(NC(=O)c2c(C)c(C(=O)C(=O)NCc3nnc(C(F)(F)F)[nH]3)n(C)c2C)ccc1F [Example 244, N-(4-fluoro-3-methylphenyl)-1,2,4-trimethyl-5-(2-oxo-2-(((t-(trifluoromethyl)-4H-1,2,4-triazol-3-yl)methyl)amino)acetyl)-1H-pyrrole-3-carboxamide]
CC50 at 7 days [1]: 5000 to 30000 nM | EC50 [2]: 50 to 499 nM

CC(C)(CO)NC(=O)C(=O)c1c(Cl)c(C(=O)Nc2ccc(F)c(F)c2)c2n1CCCC2 [Example 492, 2-chloro-N-(3,4-difluorophenyl)-3-(2-((1-hydroxy-2-methylpropan-2-yl)amino)-2-oxoacetyl)-5,6,7,8-tetrahydroindolizine-1-carboxamide]
CC50 at 7 days [1]: 5000 to 30000 nM | EC50 [2]: < 50 nM

Cc1c(C(=O)Nc2cccc(Cl)c2)c(C)n(C)c1C(=O)C(=O)N[C@]1(C)CC[C@@H](O)CC1 [Example 615, N-(3-chlorophenyl)-5-(2-(((1r,4r)-4-hydroxy-1-methylcyclohexyl)amino)-2-oxoacetyl)-1,2,4-trimethyl-1H-pyrrole-3-carboxamide]
CC50 at 7 days [1]: > 30000 nM | EC50 [2]: < 50 nM

Cc1cc(NC(=O)c2c(Cl)c(C(=O)C(=O)N[C@@H](C)C(F)(F)F)n3c2CCCC3)cnc1F [Example 731, (S)-2-chloro-N-(6-fluoro-5-methylpyridin-3-yl)-3-(2-oxo-2-((1,1,1-trifluoropropan-2-yl)amino)acetyl)-5,6,7,8-tetrahydroindolizine-1-carboxamide]
CC50 at 7 days [1]: 5000 to 30000 nM | EC50 [2]: < 50 nM

Cc1cc(NC(=O)c2c(C)c(C(=O)C(=O)NC(C)(C)CN3CCOCC3)n(C)c2C)ccc1F [Example 291, N-(4-fluoro-3-methylphenyl)-1,2,4-trimethyl-5-(2-((2-methyl-1-morpholinopropan-2-yl)amino)-2-oxoacetyl)-1H-pyrrole-3-carboxamide]
CC50 at 7 days [1]: > 30000 nM | EC50 [2]: < 50 nM

Cc1cc(NC(=O)c2c(Cl)c(C(=O)C(=O)NCC(C)(C)CO)n3c2CCC3)ccc1F [Example 549, 6-chloro-N-(4-fluoro-3-methylphenyl)-5-(2-((3-hydroxy-2,2-dimethylpropyl)amino)-2-oxoacetyl)-2,3-dihydro-1H-pyrrolizine-7-carboxamide]
CC50 at 7 days [1]: > 30000 nM | EC50 [2]: 500 to 1000 nM

Cc1c(C(=O)Nc2cccc(C(F)F)c2)c(C)n(C)c1C(=O)C(=O)N[C@H]1CC[C@H](O)CC1 [Example 697, N-(3-(difluoromethyl)phenyl)-5-(2-(((1r,4r)-4-hydroxycyclohexyl)amino)-2-oxoacetyl)-1,2,4-trimethyl-1H-pyrrole-3-carboxamide]
CC50 at 7 days [1]: > 30000 nM | EC50 [2]: < 50 nM

Cc1cc(NC(=O)c2c(C)c(C(=O)C(=O)N3CCC(O)C(C)(C)C3)n(C)c2C)ccc1F (stereo not shown) [Example 53, N-(4-fluoro-3-methylphenyl)-5-(2-(4-hydroxy-3,3-dimethylpiperidin-1-yl)-2-oxoacetyl)-1,2,4-trimethyl-1H-pyrrole-3-carboxamide]
CC50 at 7 days [1]: > 30000 nM | EC50 [2]: 50 to 499 nM
